Values quoted from earlier work as cited in article PMC9147171, “Pharmacokinetic/Pharmacodynamic Evaluation of a New Purine-2,6-Dione Derivative in Rodents with Experimental Autoimmune Diseases” (Pharmaceutics, 2022).
Where two headings read alike, the source gives them in different places.

Key:
PDE7A = conditions: read-out: IC50 (µM) Against PDE Isoform PDE7A; cited from earlier work
[1] = mice; from the authors' previous investigations; cited from earlier work
hrPDE3A = target: T1, hrPDE3A (Homo sapiens, UniProt Q14432); set-up: method as in PMID 31899535; conditions: PDE3A; read-out: IC50 (µM) Against PDE Isoform (CV%) PDE3A; cited from earlier work
T1 construct: purchased SignalChem, Richmond, Canada
T1 sequence (Q14432 whole entry, canonical isoform): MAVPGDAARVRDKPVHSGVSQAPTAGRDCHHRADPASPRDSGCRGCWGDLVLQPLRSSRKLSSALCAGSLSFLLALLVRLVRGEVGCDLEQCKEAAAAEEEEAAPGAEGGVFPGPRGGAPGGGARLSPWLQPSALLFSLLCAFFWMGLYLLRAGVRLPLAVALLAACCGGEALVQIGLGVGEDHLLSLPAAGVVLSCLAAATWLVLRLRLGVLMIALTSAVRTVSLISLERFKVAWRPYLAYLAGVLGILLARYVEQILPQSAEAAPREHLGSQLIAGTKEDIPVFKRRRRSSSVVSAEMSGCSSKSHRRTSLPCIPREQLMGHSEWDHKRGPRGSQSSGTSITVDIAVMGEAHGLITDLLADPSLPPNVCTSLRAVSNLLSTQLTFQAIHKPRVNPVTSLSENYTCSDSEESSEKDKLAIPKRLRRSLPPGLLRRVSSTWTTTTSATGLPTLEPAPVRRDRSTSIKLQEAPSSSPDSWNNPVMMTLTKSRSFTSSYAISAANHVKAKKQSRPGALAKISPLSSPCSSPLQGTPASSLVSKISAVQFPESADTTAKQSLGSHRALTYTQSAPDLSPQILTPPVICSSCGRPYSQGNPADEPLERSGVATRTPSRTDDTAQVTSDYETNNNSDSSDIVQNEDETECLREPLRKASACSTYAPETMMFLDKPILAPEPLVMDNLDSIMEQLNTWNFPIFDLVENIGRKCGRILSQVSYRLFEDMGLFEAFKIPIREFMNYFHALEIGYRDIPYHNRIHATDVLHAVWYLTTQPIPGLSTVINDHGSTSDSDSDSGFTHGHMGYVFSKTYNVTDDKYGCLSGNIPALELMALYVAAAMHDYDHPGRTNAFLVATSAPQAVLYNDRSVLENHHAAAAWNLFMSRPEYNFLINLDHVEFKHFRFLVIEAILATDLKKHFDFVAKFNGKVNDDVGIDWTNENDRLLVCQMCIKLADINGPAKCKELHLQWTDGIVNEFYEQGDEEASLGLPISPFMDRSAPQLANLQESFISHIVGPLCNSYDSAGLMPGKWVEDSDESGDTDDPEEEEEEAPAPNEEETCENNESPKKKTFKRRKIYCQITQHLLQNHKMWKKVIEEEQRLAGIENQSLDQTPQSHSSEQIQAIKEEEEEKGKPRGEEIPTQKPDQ

[2] = rats; from the authors' previous investigations; cited from earlier work
PDE4B = conditions: read-out: IC50 (µM) Against PDE Isoform PDE4B; cited from earlier work
hrPDE1B = target: T2, hrPDE1B (Homo sapiens, UniProt Q01064); set-up: method as in PMID 31899535; conditions: PDE1B; read-out: IC50 (µM) Against PDE Isoform (CV%) PDE1B; cited from earlier work
T2 construct: purchased SignalChem, Richmond, Canada
T2 sequence (Q01064 whole entry, canonical isoform): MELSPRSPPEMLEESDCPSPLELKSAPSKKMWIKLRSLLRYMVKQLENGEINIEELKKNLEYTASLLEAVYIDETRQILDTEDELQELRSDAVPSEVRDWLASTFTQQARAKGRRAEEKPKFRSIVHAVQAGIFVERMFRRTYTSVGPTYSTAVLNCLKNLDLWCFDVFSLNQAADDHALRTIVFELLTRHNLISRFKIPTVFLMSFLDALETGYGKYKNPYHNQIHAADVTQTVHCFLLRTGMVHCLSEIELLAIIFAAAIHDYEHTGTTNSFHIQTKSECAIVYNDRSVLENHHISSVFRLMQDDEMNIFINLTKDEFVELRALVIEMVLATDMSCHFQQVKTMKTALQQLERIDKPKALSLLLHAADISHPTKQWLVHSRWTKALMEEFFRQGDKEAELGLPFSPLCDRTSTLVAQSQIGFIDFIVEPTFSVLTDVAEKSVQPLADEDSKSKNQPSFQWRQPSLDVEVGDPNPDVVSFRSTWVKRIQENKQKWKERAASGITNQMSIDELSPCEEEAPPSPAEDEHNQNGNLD

## Cc1ccc([N+](=O)[O-])cc1S(=O)(=O)N(C)C [BRL—50481]
PDE7A
  IC50: 2.1 µM

## Cn1c(=O)c2c(nc(NCCc3ccccc3)n2CCCC(=O)NN=Cc2ccccc2O)n(C)c1=O [GRMS-55]
[1]
  half-life: around 30 min
PDE7A
  IC50: 7.3 µM
hrPDE3A
  IC50: 13.4 µM
[2]
  half-life: around 30 min
PDE4B
  IC50: 26.9 µM
hrPDE1B
  IC50: 2.5 µM
